From ChEMBL document CHEMBL2401706, “An atom economic synthesis and AChE inhibitory activity of novel dispiro 7-aryltetrahydro-1H-pyrrolo[1,2-c][1,3]thiazole and 4-aryloctahydroindolizine N-methylpiperidin-4-one hybrid heterocycles” (Eur J Med Chem, 2013)

What follows are compounds tested against Acetylcholinesterase (Electrophorus electricus, UniProt O42275) (assay: Inhibition of electric eel AChE after 30 mins by Ellman's method).
Chain of Acetylcholinesterase (O42275 whole entry): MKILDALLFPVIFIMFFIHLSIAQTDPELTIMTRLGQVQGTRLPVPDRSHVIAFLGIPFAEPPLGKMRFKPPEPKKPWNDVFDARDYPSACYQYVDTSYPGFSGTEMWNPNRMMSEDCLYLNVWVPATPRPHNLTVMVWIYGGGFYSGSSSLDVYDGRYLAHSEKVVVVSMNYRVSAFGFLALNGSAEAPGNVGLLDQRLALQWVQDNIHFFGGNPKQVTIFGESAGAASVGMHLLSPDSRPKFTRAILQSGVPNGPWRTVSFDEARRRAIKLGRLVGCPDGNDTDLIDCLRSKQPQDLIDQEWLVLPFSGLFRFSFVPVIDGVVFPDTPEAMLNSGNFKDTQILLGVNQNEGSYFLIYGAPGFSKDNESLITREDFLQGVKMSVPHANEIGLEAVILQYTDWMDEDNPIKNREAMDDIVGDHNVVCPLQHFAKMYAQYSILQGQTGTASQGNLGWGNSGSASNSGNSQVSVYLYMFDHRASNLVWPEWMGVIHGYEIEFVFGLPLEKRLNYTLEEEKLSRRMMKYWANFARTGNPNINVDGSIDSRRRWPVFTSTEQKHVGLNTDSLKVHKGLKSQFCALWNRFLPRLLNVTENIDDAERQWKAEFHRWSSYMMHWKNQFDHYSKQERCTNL

**Q.** `CN1C/C(=C\c2ccccc2F)C(=O)[C@]2(C1)[C@@H](c1ccccc1F)[C@@H]1CSCN1[C@@]21C(=O)c2cccc3cccc1c23` was tested. Which IC50 did it give?
**A.** The IC50 was 12.6 µM.

**Q.** Which IC50 does the source give for `CN1C/C(=C\c2ccccc2Br)C(=O)[C@]2(C1)[C@@H](c1ccccc1Br)[C@@H]1CSCN1[C@@]21C(=O)c2cccc3cccc1c23` here?
**A.** Its IC50 is 10.1 µM.

**Q.** With `COc1ccc(/C=C2\CN(C)C[C@@]3(C2=O)[C@@H](c2ccc(OC)cc2)[C@@H]2CSCN2[C@@]32C(=O)c3cccc4cccc2c34)cc1` as the compound, how does the IC50 read?
**A.** Its IC50 is 12.3 µM.

**Q.** For `Cc1ccc(/C=C2\CN(C)C[C@@]3(C2=O)[C@@H](c2ccc(C)cc2)[C@@H]2CCCCN2[C@@]32C(=O)c3cccc4cccc2c34)cc1`, which IC50 is on record?
**A.** Its IC50 is 2.24 µM.

**Q.** With `CN1C/C(=C\c2ccc(Cl)cc2Cl)C(=O)[C@]2(C1)[C@@H](c1ccc(Cl)cc1Cl)[C@@H]1CCCCN1[C@@]21C(=O)c2cccc3cccc1c23` as the compound, how does the IC50 read?
**A.** The IC50 was 17.3 µM.

**Q.** How did the IC50 turn out when `CN1C/C(=C\c2ccccc2)C(=O)[C@]2(C1)[C@@H](c1ccccc1)[C@@H]1CSCN1[C@@]21C(=O)c2cccc3cccc1c23` was run?
**A.** The IC50 was 16.5 µM.

**Q.** With `CN1C/C(=C\c2ccccc2Cl)C(=O)[C@]2(C1)[C@@H](c1ccccc1Cl)[C@@H]1CCCCN1[C@@]21C(=O)c2cccc3cccc1c23` as the compound, how does the IC50 read?
**A.** Its IC50 is 21.3 µM.

**Q.** With `CN1C/C(=C\c2ccc(F)cc2)C(=O)[C@]2(C1)[C@@H](c1ccc(F)cc1)[C@@H]1CSCN1[C@@]21C(=O)c2cccc3cccc1c23` as the compound, how does the IC50 read?
**A.** The IC50 was 15.8 µM.

**Q.** For `CN1C/C(=C\c2cccc([N+](=O)[O-])c2)C(=O)[C@]2(C1)[C@@H](c1cccc([N+](=O)[O-])c1)[C@@H]1CSCN1[C@@]21C(=O)c2cccc3cccc1c23`, which IC50 is on record?
**A.** Its IC50 is 8.1 µM.

**Q.** `CN1C/C(=C\c2ccc([N+](=O)[O-])cc2)C(=O)[C@]2(C1)[C@@H](c1ccc([N+](=O)[O-])cc1)[C@@H]1CSCN1[C@@]21C(=O)c2cccc3cccc1c23` was tested. Which IC50 did it give?
**A.** The IC50 was 4.56 µM.

**Q.** With `CN1C/C(=C\c2cccc3ccccc23)C(=O)[C@]2(C1)[C@@H](c1cccc3ccccc13)[C@@H]1CCCCN1[C@@]21C(=O)c2cccc3cccc1c23` as the compound, how does the IC50 read?
**A.** The IC50 was 3.34 µM.

**Q.** With `CN1C/C(=C\c2cccc(Cl)c2Cl)C(=O)[C@]2(C1)[C@@H](c1cccc(Cl)c1Cl)[C@@H]1CSCN1[C@@]21C(=O)c2cccc3cccc1c23` as the compound, how does the IC50 read?
**A.** Its IC50 is 19.1 µM.

**Q.** Which IC50 does the source give for `CN1C/C(=C\c2ccccc2Br)C(=O)[C@]2(C1)[C@@H](c1ccccc1Br)[C@@H]1CCCCN1[C@@]21C(=O)c2cccc3cccc1c23` here?
**A.** The IC50 was 38.3 µM.

**Q.** Which IC50 does the source give for `CN1C/C(=C\c2ccccc2)C(=O)[C@]2(C1)[C@@H](c1ccccc1)[C@@H]1CCCCN1[C@@]21C(=O)c2cccc3cccc1c23` here?
**A.** Its IC50 is 18.3 µM.

**Q.** For `CN1C/C(=C\c2cccc3ccccc23)C(=O)[C@]2(C1)[C@@H](c1cccc3ccccc13)[C@@H]1CSCN1[C@@]21C(=O)c2cccc3cccc1c23`, which IC50 is on record?
**A.** Its IC50 is 9.48 µM.

**Q.** Which IC50 does the source give for `Cc1ccccc1/C=C1\CN(C)C[C@@]2(C1=O)[C@@H](c1ccccc1C)[C@@H]1CCCCN1[C@@]21C(=O)c2cccc3cccc1c23` here?
**A.** Its IC50 is 3.86 µM.

**Q.** Which IC50 does the source give for `CN1C/C(=C\c2ccc(Cl)cc2)C(=O)[C@]2(C1)[C@@H](c1ccc(Cl)cc1)[C@@H]1CSCN1[C@@]21C(=O)c2cccc3cccc1c23` here?
**A.** Its IC50 is 11.1 µM.

**Q.** Which IC50 does the source give for `CN1C/C(=C\c2cccc([N+](=O)[O-])c2)C(=O)[C@]2(C1)[C@@H](c1cccc([N+](=O)[O-])c1)[C@@H]1CCCCN1[C@@]21C(=O)c2cccc3cccc1c23` here?
**A.** The IC50 was 25.1 µM.

**Q.** `CN1C/C(=C\c2ccc(Br)cc2)C(=O)[C@]2(C1)[C@@H](c1ccc(Br)cc1)[C@@H]1CCCCN1[C@@]21C(=O)c2cccc3cccc1c23` was tested. Which IC50 did it give?
**A.** The IC50 was 14.1 µM.

**Q.** How did the IC50 turn out when `CN1C/C(=C\c2cccc(Cl)c2Cl)C(=O)[C@]2(C1)[C@@H](c1cccc(Cl)c1Cl)[C@@H]1CCCCN1[C@@]21C(=O)c2cccc3cccc1c23` was run?
**A.** Its IC50 is 24.2 µM.

**Q.** Which IC50 does the source give for `COc1ccccc1/C=C1\CN(C)C[C@@]2(C1=O)[C@@H](c1ccccc1OC)[C@@H]1CCCCN1[C@@]21C(=O)c2cccc3cccc1c23` here?
**A.** Its IC50 is 11.6 µM.

**Q.** `Cc1ccc(/C=C2\CN(C)C[C@@]3(C2=O)[C@@H](c2ccc(C)cc2)[C@@H]2CSCN2[C@@]32C(=O)c3cccc4cccc2c34)cc1` was tested. Which IC50 did it give?
**A.** Its IC50 is 1.86 µM.

**Q.** For `CN1C/C(=C\c2ccc(Br)cc2)C(=O)[C@]2(C1)[C@@H](c1ccc(Br)cc1)[C@@H]1CSCN1[C@@]21C(=O)c2cccc3cccc1c23`, which IC50 is on record?
**A.** Its IC50 is 20.3 µM.

**Q.** How did the IC50 turn out when `CN1C/C(=C\c2ccc(Cl)cc2)C(=O)[C@]2(C1)[C@@H](c1ccc(Cl)cc1)[C@@H]1CCCCN1[C@@]21C(=O)c2cccc3cccc1c23` was run?
**A.** The IC50 was 11.6 µM.

**Q.** Which IC50 does the source give for `CN1C/C(=C\c2cccc(F)c2)C(=O)[C@]2(C1)[C@@H](c1cccc(F)c1)[C@@H]1CCCCN1[C@@]21C(=O)c2cccc3cccc1c23` here?
**A.** Its IC50 is 32.6 µM.

**Q.** How did the IC50 turn out when `CN1C/C(=C\c2ccc(F)cc2)C(=O)[C@]2(C1)[C@@H](c1ccc(F)cc1)[C@@H]1CCCCN1[C@@]21C(=O)c2cccc3cccc1c23` was run?
**A.** The IC50 was 12.6 µM.

**Q.** With `CN1C/C(=C\c2ccc(Cl)cc2Cl)C(=O)[C@]2(C1)[C@@H](c1ccc(Cl)cc1Cl)[C@@H]1CSCN1[C@@]21C(=O)c2cccc3cccc1c23` as the compound, how does the IC50 read?
**A.** Its IC50 is 23.2 µM.

**Q.** How did the IC50 turn out when `CN1C/C(=C\c2ccccc2Cl)C(=O)[C@]2(C1)[C@@H](c1ccccc1Cl)[C@@H]1CSCN1[C@@]21C(=O)c2cccc3cccc1c23` was run?
**A.** Its IC50 is 12.2 µM.

**Q.** For `COc1ccc(/C=C2\CN(C)C[C@@]3(C2=O)[C@@H](c2ccc(OC)cc2)[C@@H]2CCCCN2[C@@]32C(=O)c3cccc4cccc2c34)cc1`, which IC50 is on record?
**A.** The IC50 was 22.3 µM.

**Q.** `CN1C/C(=C\c2ccc([N+](=O)[O-])cc2)C(=O)[C@]2(C1)[C@@H](c1ccc([N+](=O)[O-])cc1)[C@@H]1CCCCN1[C@@]21C(=O)c2cccc3cccc1c23` was tested. Which IC50 did it give?
**A.** The IC50 was 9.16 µM.

**Q.** How did the IC50 turn out when `CN1C/C(=C\c2cccc(F)c2)C(=O)[C@]2(C1)[C@@H](c1cccc(F)c1)[C@@H]1CSCN1[C@@]21C(=O)c2cccc3cccc1c23` was run?
**A.** Its IC50 is 11.2 µM.

**Q.** With `CN1C/C(=C\c2ccccc2F)C(=O)[C@]2(C1)[C@@H](c1ccccc1F)[C@@H]1CCCCN1[C@@]21C(=O)c2cccc3cccc1c23` as the compound, how does the IC50 read?
**A.** The IC50 was 34.2 µM.

**Q.** `Cc1ccccc1/C=C1\CN(C)C[C@@]2(C1=O)[C@@H](c1ccccc1C)[C@@H]1CSCN1[C@@]21C(=O)c2cccc3cccc1c23` was tested. Which IC50 did it give?
**A.** Its IC50 is 6.28 µM.
